Laboratory results taken from patent publication US7414138B2, “Benzoxazole and benzodiazole UV-A sunscreens” (DSM IP Assets B.V., priority 2002, dated 2008).

Key:
[1] = Photostability, irradiation in high dilution with 150 W Hg-lamp (on-line Hg-lamp/HPLC); type: physicochemical; conditions: for photostability (in words): irradiated in high dilution with a Hg-lamp 150 W from Heraeus
Experimental: The photostability is measured in an on-line system Hg-lamp/HPLC, using a 150 W Hg-lamp of Heraeus with Pyrex filter (2.3 mm) and a Teflon capillary tube with 0.3 mm inside diameter and a total length of 10 m. 3.6. mg of the sample is dissolved in 16 ml of MeOH and 10 μl of this solution injected. The degradation products are not separated. UV-absorption at a wavelength of 358 nm of the irradiated solution is measured periodically up to 14 minutes and the result is compared with the corresponding photostability of butyl methoxy dibenzoylmethane. The product was detected in >90%, indicating photostability, whereas only 16% of butyl methoxy dibenzoylmethane could be detected after 14 minutes of irradiation.
Alternatively, the measurement is performed according to the protocol described in the International Journal of Cosmetic Science 18, 167-177 (1996).

[2] = Solubility measurement in cosmetic solvents (saturated solution, UV spectroscopy); conditions: for solubility in Cétiol LC: Cétiol LC (cocoyl caprylate caprate); for solubility in Cétiol LC / solubility in Crodamol DA: room temperature, 18 hours; for solubility in Crodamol DA: Crodamol DA (diisopropyl adipate)
Experimental: An excess of the UV sunscreen was placed in a flask, containing Cétiol LC (cocoyl caprylate caprate) and Crodamol DA (diisopropyl adipate), respectively. The suspension was mixed and treated in an ultrasound bath for 10 minutes. After standing at room temperature for 18 hours, the solution over the remaining crystals was filtered through a millipore microfilter (pore size of 0.45 μm). The concentration of this saturated solution was determined by means of UV spectroscopy in comparison with a calibration curve.

Row | SMILES | photostability (in words) [1] | melting point | solubility in Cétiol LC [2] | solubility in Cétiol LC (in words) ([2]; Cétiol LC) | solubility in Crodamol DA [2] | product detected after irradiation ([1]; MeOH solution, 150 W Hg-lamp with Pyrex filter, UV-absorption at 358 nm, after 14 minutes of irradiation) | solubility in Crodamol DA (in words) ([2]; Crodamol DA)
1 | CCOCCOCCOc1ccc2nc(-c3ccc(C=C(C(=O)OCC)C(=O)OCC)cc3)oc2c1 [Example 8] | photostable | 43 to 45 °C | 4.6% | – | – | – | –
2 | CCCCOC(=O)C(=Cc1ccc(-c2nc3ccccc3o2)cc1)C(=O)OCCCC [Example 3, 2-(4-Benzoxazol-2-yl-benzylidene)-malonic acid dibutyl ester] | photostable | – | – | miscible | – | – | –
3 | CCCCC(CC)COC(=O)/C(C#N)=C/c1ccc(-c2nc3ccccc3o2)cc1 (stereo not shown) [Example 4, 2-Cyano-3-{4-benzoxazol-2-yl-phenyl}-acrylic acid 2-ethylhexyl ester] | photostable after E/Z isomerisation | 84 to 85 °C | 1.6% | – | 2.8% | – | –
4 | CCOC(=O)C(=Cc1ccc(-c2nc3ccc(O)cc3o2)cc1)C(=O)OCC [Example 6, 2-(4-[6-Hydroxy-benzoxazol-2-yl]-benzylidene)-malonic acid diethyl ester] | photostable | 153 to 155 °C | – | – | 1.6% | – | –
5 | CCOC(=O)C(=Cc1ccc(-c2nc3ccccc3o2)cc1)C(=O)OCC [Example 1, 2-(4-Benzoxazol-2-yl-benzylidene)-malonic acid diethyl ester] | – | 99 to 102 °C | 4.5% | – | 11% | > 90% | –
6 | C=C(COc1ccc2nc(-c3ccc(C=C(C(=O)OCC)C(=O)OCC)cc3)oc2c1)[Si](C)(O[Si](C)(C)C)O[Si](C)(C)C [Example 9] | excellent photostability | – | – | – | – | – | unlimited solubility
7 | CCCCC(CC)COc1ccc2nc(-c3ccc(C=C(C(=O)OCC)C(=O)OCC)cc3)oc2c1 (stereo not shown) [Example 7] | photostable | 50 to 52 °C | 10.2% | – | – | – | –
8 | CCCCC(CC)COC(=O)/C(C#N)=C/c1ccc(-c2nc3cc(C(C)(C)C)ccc3o2)cc1 (stereo not shown) [Example 2, 2-Cyano-3-{4-[5-tert.-butyl-benzoxazol-2-yl]-phenyl}-acrylic acid 2-ethylhexyl ester] | photostable | 80 to 81 °C | 3.8% | – | 7.4% | – | –
